pIC50: −log10 of the molar value. Where two headings read alike, the source gives them in different places.
Experiments:
[1] = tested on: Caulobacter cresentus; assay: microbe, parasite or virus in culture; format: cell-based
[2] = tested on: Bacillus subtilis; assay: microbe, parasite or virus in culture; format: cell-based
[3] = tested on: Helicobacter pylori; format: cell-based; conditions: read-out: IC50, cell growth inhibition
[4] = tested on: Agrobacterium tumefaciens; format: cell-based; conditions: read-out: IC50, cell growth inhibition
[5] = molecular target: dam methylase (E. coli) (Escherichia coli, UniProt P0AEE8); format: biochemical; conditions: at 100 μM
dam methylase (E. coli), sequence (P0AEE8 whole entry): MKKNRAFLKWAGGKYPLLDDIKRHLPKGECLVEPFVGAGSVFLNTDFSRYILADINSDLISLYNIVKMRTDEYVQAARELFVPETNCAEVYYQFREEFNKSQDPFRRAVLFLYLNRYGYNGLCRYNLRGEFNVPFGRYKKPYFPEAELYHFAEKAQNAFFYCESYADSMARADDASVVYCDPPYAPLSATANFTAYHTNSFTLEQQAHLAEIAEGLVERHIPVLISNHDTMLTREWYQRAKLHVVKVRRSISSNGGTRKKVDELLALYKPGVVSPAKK

[6] = molecular target: dcm methyltransferase (HhaI) (Haemophilus parahaemolyticus, UniProt P05102); format: biochemical, Hemophilus hemolyticus; conditions: at 500 μM
dcm methyltransferase (HhaI), sequence (P05102 whole entry): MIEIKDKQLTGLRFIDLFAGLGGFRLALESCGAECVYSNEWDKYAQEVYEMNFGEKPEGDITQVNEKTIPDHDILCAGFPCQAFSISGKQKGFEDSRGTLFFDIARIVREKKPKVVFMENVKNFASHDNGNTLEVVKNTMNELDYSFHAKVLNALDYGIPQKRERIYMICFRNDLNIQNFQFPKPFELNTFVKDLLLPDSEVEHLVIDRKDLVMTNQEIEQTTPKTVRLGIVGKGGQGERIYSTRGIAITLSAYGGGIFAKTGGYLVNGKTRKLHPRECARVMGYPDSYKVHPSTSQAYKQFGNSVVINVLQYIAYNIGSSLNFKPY

[7] = tested on: bacterial cells expressing an adenine DNA methyltransferase; format: cell-based
[8] = molecular target: adenine DNA methyltransferase (Caulobacter vibrioides (Caulobacter crescentus), UniProt P0CAW2); format: biochemical
adenine DNA methyltransferase, sequence (P0CAW2 whole entry): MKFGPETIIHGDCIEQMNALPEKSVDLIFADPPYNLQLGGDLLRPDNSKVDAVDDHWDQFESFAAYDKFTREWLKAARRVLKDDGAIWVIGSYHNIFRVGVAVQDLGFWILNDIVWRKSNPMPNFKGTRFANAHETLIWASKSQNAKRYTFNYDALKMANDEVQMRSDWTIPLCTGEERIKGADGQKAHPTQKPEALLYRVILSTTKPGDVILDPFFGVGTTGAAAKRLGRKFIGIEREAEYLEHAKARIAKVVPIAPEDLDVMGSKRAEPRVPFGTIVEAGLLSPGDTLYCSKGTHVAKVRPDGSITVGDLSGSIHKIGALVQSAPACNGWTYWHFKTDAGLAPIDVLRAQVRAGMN

[9] = Caulobacter, read-out: IC50, Caulobacter cresentus
[10] = Bacillus subtilis, read-out: IC50, Bacillus subtilis
[11] = read-out: IC50, cell growth inhibition

Work on `Clc1ccc([B-]2(c3ccc(Cl)cc3)Oc3cccc4ccc[n+]2c34)cc1` [(2), di-(p-chlorophenyl)borinic acid 8-hydroxyquiniline ester] yielded a pIC50 [1, 9] of 4.80 and a pIC50 [2, 10] of 5.15.

Work on `Clc1ccc([B-]2(c3ccc(Cl)cc3)[NH2+]CCO2)cc1` [(5), di-(p-chlorophenyl)borinic acid ethanolamine ester] yielded a pIC50 [1, 9] of 4.77 and a pIC50 [2, 10] of 4.49.

Molecule “6-N-(diphenylborinic ester)-ethyl-9-(2-(4-morpholinyl)-ethyl)-adenine [Compound 3b]” has a pIC50 [1, 11] greater than 4.60, a pIC50 [3] greater than 4.60 and a pIC50 [4] of 4.60. The “inhibition of dam methylase (E. coli)” value [5] was “Complete inhibition”, the “inhibition of dcm methyltransferase (HhaI)” value (shortened to “inhibition … (HhaI)”) [6] was “No inhibition at all” and the pIC50 [2, 11] was 5.00 to 6.00.

`Fc1ccc([B-]2(c3ccc(F)cc3)[NH2+]CCO2)cc1` [(4), di-(p-fluorophenyl)borinic acid ethanolamine ester] showed a pIC50 [1, 9] of 4.07 and a pIC50 [2, 10] of 4.47.

`c1ccc([B-]2(c3ccccc3)Oc3cccc4ccc[n+]2c34)cc1` [(3), diphenylborinic acid 8-hydroxyquiniline ester] showed a pIC50 [1, 9] of less than 4.00.

`c1ccc(B(OCCNc2ncnc3[nH]cnc23)c2ccccc2)cc1` was tested, and the “concentration that inhibits cell growth” value [7] was less than 50 µM.

With “6-N-(diphenylborinic ester)-ethyl-9-(3-(N-phthaloyl)-aminopropyl)-adenine [Compound 3c]” the pIC50 [1, 11] was greater than 4.60, the pIC50 [3] was 4.00 to 4.60 and the pIC50 [4] was 4.60. The “inhibition of dam methylase (E. coli)” value [5] was “Complete inhibition”, the “inhibition … (HhaI)” value [6] was “No inhibition at all” and the pIC50 [2, 11] was 5.00 to 6.00.

Work on “6-N-(diphenylborinic ester)-ethyl-adenine [Compound 3a]” yielded a pIC50 [1, 11] greater than 4.60, a pIC50 [3] greater than 4.60 and a pIC50 [4] of less than 4.00. The “inhibition of dam methylase (E. coli)” value [5] was “Complete inhibition”, the “inhibition … (HhaI)” value [6] was “No inhibition at all” and the pIC50 [2, 11] was 4.30 to 5.00.

`NCCNc1ncnc2[nH]cnc12` [compound (8)] was tested, and the inhibitory activity [8] was “relatively low (mM range)”.

With “6-N-(diphenylborinic ester)-ethyl-9-(ethyl-2-acrylate)-methyl-adenine [Compound 3e]” the pIC50 [1, 11] was greater than 4.60, the pIC50 [3] was 4.60 and the pIC50 [4] was greater than 4.60. The “inhibition of dam methylase (E. coli)” value [5] was “Complete inhibition” and the “inhibition … (HhaI)” value [6] was “No inhibition at all”.

`Fc1ccc([B-]2(c3ccc(F)cc3)Oc3cccc4ccc[n+]2c34)cc1` [(1), di-(p-fluorophenyl)borinic acid 8-hydroxyquiniline ester] was tested, and the pIC50 [1, 9] was 4.64 and the pIC50 [2, 10] was 4.85.

For “6-N-(diphenylborinic ester)-ethyl-9-(2-(2-(2-hydroxyethoxy)ethoxy)ethyl)-adenine [Compound 3d]”, the pIC50 [1, 11] was greater than 4.60, the pIC50 [3] was 4.00 to 4.60 and the pIC50 [4] was greater than 4.60. For the same molecule, the “inhibition of dam methylase (E. coli)” value [5] was “Complete inhibition”, the “inhibition … (HhaI)” value [6] was “No inhibition at all” and the pIC50 [2, 11] was 4.30 to 5.00.
